{
  "source": "patent US20210196720A1",
  "about": "(UROVANT SCIENCES GMBH, priority 2018, published 2021)",
  "key": {"[1]": {"assay": "Multiple rising dose Phase 1 PK, healthy subjects, day 14 (young males unless stated)", "assay_type": "in vivo, human", "settings": "for half-life / AUC(0-t) / Cmax: plasma; for half-life / CL renal / AUC(0-t) / Cmax: oral; for CL renal: urine, read-out: renal clearance CLR at steady state", "excerpt": "The steady state AUC geometric mean accumulation ratios were ˜2 in young male subjects and ˜2.8 in elderly subjects (male and female).\nAlthough exposures were similar in middle-aged males when compared to young males, plasma concentrations were higher in elderly compared to middle-aged and young subjects. […] Furthermore, the steady state AUC geometric mean accumulation ratios were ˜2 in young males and ˜2.8 in the elderly."}, "[2]": {"settings": "human, in vivo", "quoted_text": "The accumulation potential of circulating metabolites in plasma was not estimated due to insufficient data from later time points to enable estimation of half-life."}, "[3]": {"assay": "Moderate hepatic impairment PK, single 100 mg", "assay_type": "in vivo, human", "settings": "for half-life: read-out: Apparent terminal t1/2 (converted)"}, "β3-AR": {"target": "β3-AR (Homo sapiens, UniProt P13945)", "sequence (P13945 whole entry)": "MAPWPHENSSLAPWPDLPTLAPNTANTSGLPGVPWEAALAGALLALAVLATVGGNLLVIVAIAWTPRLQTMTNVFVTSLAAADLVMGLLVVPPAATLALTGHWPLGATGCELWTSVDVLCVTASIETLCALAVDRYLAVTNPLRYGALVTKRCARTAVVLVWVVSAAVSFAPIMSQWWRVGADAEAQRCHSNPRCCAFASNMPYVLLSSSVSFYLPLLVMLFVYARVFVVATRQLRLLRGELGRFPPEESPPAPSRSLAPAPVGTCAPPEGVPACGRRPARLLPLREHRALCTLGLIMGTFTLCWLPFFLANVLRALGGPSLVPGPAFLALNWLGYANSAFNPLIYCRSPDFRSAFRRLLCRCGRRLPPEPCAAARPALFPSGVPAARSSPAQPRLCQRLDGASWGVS", "assay": "biochemical"}, "β2-AR": {"target": "β2-AR (Homo sapiens, UniProt P07550)", "sequence (P07550 whole entry)": "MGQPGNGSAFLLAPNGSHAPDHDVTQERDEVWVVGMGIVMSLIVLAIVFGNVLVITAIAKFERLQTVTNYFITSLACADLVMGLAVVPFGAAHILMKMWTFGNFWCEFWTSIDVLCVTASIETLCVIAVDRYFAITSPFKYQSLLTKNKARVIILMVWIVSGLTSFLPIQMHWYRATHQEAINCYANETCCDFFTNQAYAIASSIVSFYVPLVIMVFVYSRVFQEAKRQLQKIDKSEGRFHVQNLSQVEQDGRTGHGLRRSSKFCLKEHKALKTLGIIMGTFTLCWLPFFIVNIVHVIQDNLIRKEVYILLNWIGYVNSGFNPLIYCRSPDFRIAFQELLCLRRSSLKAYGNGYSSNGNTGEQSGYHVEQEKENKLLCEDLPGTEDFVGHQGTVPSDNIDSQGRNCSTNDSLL", "assay": "Competition binding assay, recombinant β2-AR"}, "[4]": {"assay": "Aqueous vs non-aqueous tablet bioequivalence, 50 mg", "assay_type": "in vivo, human", "quoted_text": "An open-label, single-dose, randomized, two-period, two-treatment, two-sequence, crossover Phase 1 study evaluated the relative bioequivalence of two types of tablets with slightly different composition: aqueous tablet (test) and non-aqueous tablet (reference)."}, "[5]": {"settings": "human, plasma, oral, 100 mg, healthy matched controls"}, "[6]": {"settings": "human, plasma, oral, 100 mg, moderate hepatic impairment"}},
  "note": "Read-outs that look alike come from different tables or passages of the source.",
  "data": [
    {"smiles": "O=C(Nc1ccc(C[C@@H]2CC[C@H]([C@H](O)c3ccccc3)N2)cc1)[C@@H]1CCc2nccc(=O)n21", "note": "[Vibegron, (6S)-N-[4-[[(2S,5R)-5-[(R)-hydroxy(phenyl)methyl]pyrrolidin-2-yl]methyl]phenyl]-4-oxo-7,8-dihydro-6H-pyrrolo[1,2-a]pyrimidine-6-carboxamide]", "values": [
      {"measurement": "half-life", "setting": "[1]; both sexes, human, 100 mg, 100 mg QD, elderly male and female, read-out: t1/2 (converted)", "result": "3.68 ± 0.446", "unit": "days"},
      {"measurement": "CL renal", "setting": "[1]; both sexes, human, 100 mg, elderly male and female", "result": 127, "unit": "mL/min"},
      {"measurement": "Cmax higher than healthy young males", "setting": "[1]; elderly and females", "result": "50-70%"},
      {"measurement": "AUC(0-t)", "setting": "[1]; female, human, 100 mg, elderly females, read-out: steady state AUC0-24hr", "result": 2620, "unit": "ng·h/mL"},
      {"measurement": "Cmax", "setting": "[1]; female, human, 100 mg, elderly females, read-out: steady state Cmax", "result": 278, "unit": "ng/mL"},
      {"measurement": "AUC(0-t)", "setting": "[1]; female, human, 150 mg, 150 mg QD, middle-aged female, fasted, read-out: AUC0-24", "result": "3180 ± 925", "unit": "ng·h/mL"},
      {"measurement": "Cmax", "setting": "[1]; female, human, 150 mg, 150 mg QD, middle-aged female, fasted, read-out: Cmax", "result": "246 ± 139", "unit": "ng/mL"},
      {"measurement": "half-life", "setting": "[1]; female, human, 150 mg, 150 mg QD, middle-aged female, read-out: t1/2 (converted)", "result": "3.46 ± 0.717", "unit": "days"},
      {"measurement": "Cmax higher, elderly Japanese vs non-Japanese", "setting": "[1]; human, in vivo", "result": 82, "unit": "%"},
      {"measurement": "steady state AUC, middle-aged females vs middle-aged males", "setting": "[1]; human, in vivo", "result": "~1.5", "unit": "fold"},
      {"measurement": "steady state exposure higher, Japanese vs non-Japanese young males", "setting": "[1]; human, in vivo", "result": "~30", "unit": "%"},
      {"measurement": "half-life", "setting": "[1]; human, young and elderly subjects, read-out: terminal t1/2", "result": "2.46 to 3.92", "unit": "days"},
      {"measurement": "AUC(0-t)", "setting": "[1]; male, human, 25 mg, 25 mg QD, read-out: AUC0-24", "result": 164, "unit": "ng·h/mL"},
      {"measurement": "Cmax", "setting": "[1]; male, human, 25 mg, 25 mg QD, read-out: Cmax", "result": "15.6 ± 6.93", "unit": "ng/mL"},
      {"measurement": "half-life", "setting": "[1]; male, human, 25 mg, 25 mg QD, read-out: t1/2 (converted)", "result": "3.92 ± 0.4", "unit": "days"},
      {"measurement": "AUC(0-t)", "setting": "[1]; male, human, 50 mg, 50 mg QD, Japanese, read-out: AUC0-24", "result": "613 ± 296", "unit": "ng·h/mL"},
      {"measurement": "Cmax", "setting": "[1]; male, human, 50 mg, 50 mg QD, Japanese, read-out: Cmax", "result": "56.9 ± 34.2", "unit": "ng/mL"},
      {"measurement": "half-life", "setting": "[1]; male, human, 50 mg, 50 mg QD, Japanese, read-out: t1/2 (converted)", "result": "2.89 ± 0.275", "unit": "days"},
      {"measurement": "AUC(0-t)", "setting": "[1]; male, human, 50 mg, 50 mg QD, read-out: AUC0-24", "result": "507 ± 176", "unit": "ng·h/mL"},
      {"measurement": "Cmax", "setting": "[1]; male, human, 50 mg, 50 mg QD, read-out: Cmax", "result": "41.5 ± 12.3", "unit": "ng/mL"},
      {"measurement": "half-life", "setting": "[1]; male, human, 50 mg, 50 mg QD, read-out: t1/2 (converted)", "result": "3.22 ± 0.371", "unit": "days"},
      {"measurement": "AUC(0-t)", "setting": "[1]; male, human, 100 mg, 100 mg QD, Japanese, read-out: AUC0-24", "result": "1710 ± 542", "unit": "ng·h/mL"},
      {"measurement": "Cmax", "setting": "[1]; male, human, 100 mg, 100 mg QD, Japanese, read-out: Cmax", "result": "180 ± 111", "unit": "ng/mL"},
      {"measurement": "half-life", "setting": "[1]; male, human, 100 mg, 100 mg QD, Japanese, read-out: t1/2 (converted)", "result": "2.37 ± 0.8", "unit": "days"},
      {"measurement": "AUC(0-t)", "setting": "[1]; male, human, 100 mg, 100 mg QD, read-out: AUC0-24", "result": "1280 ± 529", "unit": "ng·h/mL"},
      {"measurement": "Cmax", "setting": "[1]; male, human, 100 mg, 100 mg QD, read-out: Cmax", "result": "169 ± 80.9", "unit": "ng/mL"},
      {"measurement": "half-life", "setting": "[1]; male, human, 100 mg, 100 mg QD, read-out: t1/2 (converted)", "result": "3.32 ± 0.479", "unit": "days"},
      {"measurement": "half-life", "setting": "[1]; male, human, 150 mg, 150 mg QD, middle-aged male, after 28 days, read-out: t1/2 (converted)", "result": 3.03, "unit": "days"},
      {"measurement": "AUC(0-t)", "setting": "[1]; male, human, 150 mg, 150 mg QD, middle-aged male, read-out: AUC0-24", "result": "2170 ± 452", "unit": "ng·h/mL"},
      {"measurement": "Cmax", "setting": "[1]; male, human, 150 mg, 150 mg QD, middle-aged male, read-out: Cmax", "result": "293 ± 67.1", "unit": "ng/mL"},
      {"measurement": "AUC(0-t)", "setting": "[1]; male, human, 150 mg, 150 mg QD, read-out: AUC0-24", "result": "2280 ± 1140", "unit": "ng·h/mL"},
      {"measurement": "Cmax", "setting": "[1]; male, human, 150 mg, 150 mg QD, read-out: Cmax", "result": "305 ± 215", "unit": "ng/mL"},
      {"measurement": "half-life", "setting": "[1]; male, human, 150 mg, 150 mg QD, read-out: t1/2 (converted)", "result": "3.3 ± 0.383", "unit": "days"},
      {"measurement": "AUC(0-t)", "setting": "[1]; male, human, 200 mg, 200 mg QD, Japanese, read-out: AUC0-24", "result": "4370 ± 618", "unit": "ng·h/mL"},
      {"measurement": "Cmax", "setting": "[1]; male, human, 200 mg, 200 mg QD, Japanese, read-out: Cmax", "result": "631 ± 154", "unit": "ng/mL"},
      {"measurement": "half-life", "setting": "[1]; male, human, 200 mg, 200 mg QD, Japanese, read-out: t1/2 (converted)", "result": "2.48 ± 0.0792", "unit": "days"},
      {"measurement": "AUC(0-t)", "setting": "[1]; male, human, 200 mg, 200 mg QD, read-out: AUC0-24", "result": "3200 ± 1120", "unit": "ng·h/mL"},
      {"measurement": "Cmax", "setting": "[1]; male, human, 200 mg, 200 mg QD, read-out: Cmax", "result": "313 ± 168", "unit": "ng/mL"},
      {"measurement": "half-life", "setting": "[1]; male, human, 200 mg, 200 mg QD, read-out: t1/2 (converted)", "result": "2.7 ± 0.271", "unit": "days"},
      {"measurement": "AUC(0-t)", "setting": "[1]; male, human, 300 mg, 300 mg QD, read-out: AUC0-24", "result": "6980 ± 1040", "unit": "ng·h/mL"},
      {"measurement": "Cmax", "setting": "[1]; male, human, 300 mg, 300 mg QD, read-out: Cmax", "result": "733 ± 164", "unit": "ng/mL"},
      {"measurement": "half-life", "setting": "[1]; male, human, 300 mg, 300 mg QD, read-out: t1/2 (converted)", "result": "2.57 ± 0.304", "unit": "days"},
      {"measurement": "AUC(0-t)", "setting": "[1]; male, human, 400 mg, 400 mg QD, read-out: AUC0-24", "result": "10500 ± 2140", "unit": "ng·h/mL"},
      {"measurement": "Cmax", "setting": "[1]; male, human, 400 mg, 400 mg QD, read-out: Cmax", "result": "1400 ± 257", "unit": "ng/mL"},
      {"measurement": "half-life", "setting": "[1]; male, human, 400 mg, 400 mg QD, read-out: t1/2 (converted)", "result": "2.45 ± 0.246", "unit": "days"},
      {"measurement": "CL renal", "setting": "[1]; male, human, young males, all dose levels", "result": "150 to 187", "unit": "mL/min"},
      {"measurement": "time to steady state", "setting": "[1]; once daily dosing", "result": "≤ 7", "unit": "days"},
      {"measurement": "AUC higher in females than males", "setting": "[1]; regardless of age", "result": 50, "unit": "%"},
      {"measurement": "dose recovered in feces", "setting": "[2]", "result": "approximately 59%"},
      {"measurement": "dose recovered in urine", "setting": "[2]", "result": "~20", "unit": "%"},
      {"measurement": "total recovery of radioactivity in excreta", "setting": "[2]", "result": 79, "unit": "%"},
      {"measurement": "share of plasma radioactivity", "setting": "[2]; 2 hr", "result": "~78", "unit": "%"},
      {"measurement": "share of plasma radioactivity", "setting": "[2]; 4 hr", "result": "~73", "unit": "%"},
      {"measurement": "CL/F", "setting": "[3]; healthy matched controls", "result": 68.3, "unit": "L/h"},
      {"measurement": "AUC(0-inf)", "setting": "[3]; [5]", "result": 1440, "unit": "ng·h/mL"},
      {"measurement": "Cmax", "setting": "[3]; [5]", "result": 125, "unit": "ng/mL"},
      {"measurement": "half-life", "setting": "[3]; [5]", "result": 3.85, "unit": "days"},
      {"measurement": "AUC(0-inf)", "setting": "[3]; [6]", "result": 1820, "unit": "ng·h/mL"},
      {"measurement": "Cmax", "setting": "[3]; [6]", "result": 168, "unit": "ng/mL"},
      {"measurement": "Tmax", "setting": "[3]; [6]", "result": 1, "unit": "h"},
      {"measurement": "half-life", "setting": "[3]; [6]", "result": 3.94, "unit": "days"},
      {"measurement": "CL/F", "setting": "[3]; moderate hepatic impairment", "result": 56.0, "unit": "L/h"},
      {"measurement": "IC50", "setting": "β3-AR", "result": 193, "unit": "nM"},
      {"measurement": "binding to β2-AR", "setting": "β2-AR", "result": "does not bind"},
      {"measurement": "AUC0-inf GMR test/reference", "setting": "[4]; 50 mg", "result": 100.2, "unit": "%"},
      {"measurement": "Cmax GMR test/reference", "setting": "[4]; 50 mg", "result": 107.7, "unit": "%"},
      {"measurement": "AUC(0-inf)", "setting": "[4]; 50 mg test, aqueous tablet (PMFII)", "result": 671, "unit": "ng·h/mL"},
      {"measurement": "Cmax", "setting": "[4]; human, plasma, po, 50 mg, 50 mg reference, non-aqueous tablet (PMF1)", "result": 38, "unit": "ng/mL"},
      {"measurement": "Cmax", "setting": "[4]; human, plasma, po, 50 mg, 50 mg test, aqueous tablet (PMFII)", "result": 41, "unit": "ng/mL"},
      {"measurement": "AUC(0-inf)", "setting": "[4]; human, plasma, po, 50 mg, read-out: AUC0-inf", "result": 671, "unit": "ng·h/mL"}
    ]}
  ]
}
